Publication PMC6724035, “Evaluation of Tumor-Targeting Properties of an Antagonistic Bombesin Analogue RM26 Conjugated with a Non-Residualizing Radioiodine Label Comparison with a Radiometal-Labelled Counterpart” (Pharmaceutics, 2019)
Where a SMILES comes first, the peptide text is derived from it. [ ]: non-standard residue; d: D form. Tyr(3-I) = N[C@@H](Cc1ccc(O)c(I)c1)C(=O)O; Sta = CC(C)C[C@H](N)[C@@H](O)CC(=O)O; AEEA = NCCOCCOCC(=O)O

Key:
DU-145 cells = test: In vitro binding specificity assay; format: cell-based, human; details: 1 nM, 1 h at 37 °C; 200-fold excess NOTA-PEG4-RM26 for blocking
Experimental: (§1) The in vitro binding specificity test of [^125I]I-Tyr-PEG2-RM26 was performed on PC-3 and DU-145 cell lines. […] The cells were incubated with 1 nM concentration of [^125I]I-Tyr-PEG2-RM26 solution for 1 h at 37 °C. To saturate GRPR, one set of dishes was treated with 200-fold molar excess of non-labelled peptide, NOTA-PEG4-RM26, 15 min before adding the radiolabelled compound. After washing with serum-free media, cells were detached by treatment with 1 mL trypsin-EDTA solution twice. Cell-associated radioactivity was measured in the gamma-counter and presented as percentage of cell-associated activity.

PC-3 cells [1] = test: In vitro binding specificity assay; format: cell-based, human; details: 1 nM, 1 h at 37 °C; 200-fold excess NOTA-PEG4-RM26 for blocking
Experimental: as §1

[2] = HPLC
Experimental: In vitro stability of [^125I]I-Tyr-PEG2-RM26 was evaluated in PBS and in presence of 100-fold molar excess of sodium iodide (1 mM). After purification, samples of freshly labelled conjugate (10 µL, 0.01 nmol) were mixed with 1 µL of NaI and incubated at room temperature for 1 h. Control samples were mixed with equal volume of PBS. The experiment was performed in duplicates. The stability of [^125I]I-Tyr-PEG2-RM26 was analyzed by HPLC.

in vivo = details: mouse, iv; for tissue to tissue ratio at 0.5 h / tissue to tissue ratio at 3 h / tissue to tissue ratio at 24 h: female, BALB/c nu/nu, total radioactivity; for tissue uptake at 0.5 h / tissue uptake at 3 h / tissue uptake at 24 h: 40 pmol, 40 pmol i.v.; for tissue uptake at 0.5 h: 0.5 h after injection; for tissue uptake at 3 h: 3 h after injection; for tissue uptake at 24 h: 24 h after injection
Experimental: (§2) Animal studies were planned and performed in agreement with EU Directive 2010/63/EU for animal experiments and Swedish national legislation concerning protection of laboratory animals. Experiments were approved by the Ethics Committee for Animal Research in Uppsala (C4/16, 26 February 2016). Biodistribution studies were performed in female BALB/C nu/nu mice purchased from Scanbur A/S (Karlslunde, Denmark). GRPR-expressing xenografts were established by subcutaneous injection of 5 × 10^6 PC-3 cells/mouse in the right hind leg of mice 3 weeks before the experiment. The animals were randomized into groups of four mice for each data point.
(§3) Mice were euthanized followed by dislocation of their neck at 0.5 h after injection and blood samples were collected by heart puncture. At 3 and 24 h after injection, mice were euthanized by an intraperitoneal injection of anaesthetic solution (20 µL of solution per gram of body weight: Ketalar, 10 mg/mL; Rompun, 1 mg/mL) followed by heart puncture. Salivary glands, thyroid, lung, liver, spleen, pancreas, stomach, small intestine, kidneys, tumour, muscle, and bone were collected and weighed. The organ radioactivity was measured in a gamma-counter and uptake values of organs were calculated as percentage of injected dose per gram tissue (% ID/g). To test the in vivo binding specificity, a group of mice was co-injected with 7.5 nmol of non-labelled peptide (NOTA-PEG4-RM26), and biodistribution was measured at 0.5 h after injection.

[3] = test system: GRPR-expressing PC-3 tumour xenograft; test: in vivo; details: PC-3 xenograft
Experimental: as §2, §3

PC-3 cells [4] = test: Cell-associated radioactivity in presence of lysosomotropic bases or sodium azide/2-deoxyglucose; format: cell-based, human; details: 1 nM, 100 µM chloroquine, 20 mM ammonium chloride, 2-8 h at 37 °C
Experimental: Additionally, PC-3 cells were incubated with 1 nM of [^125I]I-Tyr-PEG2-RM26 in presence of 20 mM sodium azide/10 mM 2-deoxyglucose at 37 °C for 8 h. […] At predetermined time points (2, 4, and 8 h), media from a set of three dishes was removed, cells were detached by trypsin-EDTA solution, re-suspended, and radioactivity in cells was measured.

[5] = Experimental: Lipophilicity was determined as the logarithm of partition coefficient, logP, of the radiolabelled compound between n-octanol and water. To determine the lipophilicity of both radioconjugates, 500 µL of n-octanol was added to a tube containing the same volume of Milli-Q water. 1 pmol (10 kBq) of radioconjugate was added. The mixture was vigorously vortexed for 1–2 min and then centrifuged. Aliquots of 100 μL were taken from each phase and their radioactivity was measured by an automated gamma-counter. The partition coefficient was calculated as the average log of a ratio of the radioactivity in organic and aqueous fractions. Each measurement was repeated in triplicate.
[6] = small intestine, small intestine

Compound: CC(C)C[C@H](NC(=O)C[C@H](O)[C@H](CC(C)C)NC(=O)[C@H](Cc1c[nH]cn1)NC(=O)CNC(=O)[C@@H](NC(=O)[C@H](C)NC(=O)[C@H](Cc1c[nH]c2ccccc12)NC(=O)[C@H](CCC(N)=O)NC(=O)[C@@H](Cc1ccccc1)NC(=O)COCCOCCNC(=O)[C@@H](N)Cc1ccc(O)c(I)c1)C(C)C)C(N)=O [[^125I]I-Tyr-PEG2-RM26] (H-[Tyr(3-I)][AEEA][dF]QWAVGH[Sta]L-NH2)
- Binding specificity to DU-145 cells (DU-145 cells): receptor mediated
- Binding specificity to PC-3 cells (PC-3 cells [1]): receptor mediated
- In vitro stability in presence of excess 1 mM NaI ([2]; 100-fold molar excess NaI, 1 h at room temperature): 92 ± 3%
- In vitro stability in PBS ([2]; 1 h incubation at room temperature): 95 ± 1%
- tissue to tissue ratio at 0.5 h (in vivo; tumour and bone): 1.9 ± 0.2
- tissue to tissue ratio at 3 h (in vivo; tumour and bone): 1.9 ± 0.3
- tissue to tissue ratio at 0.5 h (in vivo; tumour and kidney): 0.5
- tissue to tissue ratio at 3 h (in vivo; tumour and kidney): 0.3 ± 0.1
- tissue to tissue ratio at 24 h (in vivo; tumour and kidney): 0.1
- tissue to tissue ratio at 0.5 h (in vivo; tumour and liver): 0.8 ± 0.2
- tissue to tissue ratio at 3 h (in vivo; tumour and liver): 0.8 ± 0.2
- tissue to tissue ratio at 24 h (in vivo; tumour and liver): 0.6 ± 0.5
- tissue to tissue ratio at 0.5 h (in vivo; tumour and lung): 0.8
- tissue to tissue ratio at 3 h (in vivo; tumour and lung): 0.6 ± 0.1
- tissue to tissue ratio at 24 h (in vivo; tumour and lung): 1 ± 0.6
- tissue to tissue ratio at 0.5 h (in vivo; tumour and muscle): 3.6 ± 0.4
- tissue to tissue ratio at 3 h (in vivo; tumour and muscle): 3.7 ± 0.6
- tissue to tissue ratio at 0.5 h (in vivo; tumour and pancreas): 0.7 ± 0.1
- tissue to tissue ratio at 3 h (in vivo; tumour and pancreas): 0.9 ± 0.1
- tissue to tissue ratio at 0.5 h (in vivo; tumour and salivary gland): 1.3 ± 0.6
- tissue to tissue ratio at 3 h (in vivo; tumour and salivary gland): 1.2 ± 0.3
- tissue to tissue ratio at 0.5 h (in vivo; tumour and small intestine): 1.1 ± 0.6
- tissue to tissue ratio at 3 h (in vivo; tumour and small intestine): 1.3 ± 0.4
- tissue to tissue ratio at 0.5 h (in vivo; tumour and spleen): 1.3 ± 0.2
- tissue to tissue ratio at 3 h (in vivo; tumour and spleen): 1.1 ± 0.1
- tissue to tissue ratio at 0.5 h (in vivo; tumour and stomach): 0.6 ± 0.2
- tissue to tissue ratio at 3 h (in vivo; tumour and stomach): 0.5 ± 0.1
- tissue to tissue ratio at 0.5 h (in vivo; tumour and thyroid): 1 ± 0.5
- tissue to tissue ratio at 3 h (in vivo; tumour and thyroid): 1.2 ± 0.6
- tissue to tissue ratio at 0.5 h (in vivo; tumour and whole blood): 0.7
- tissue to tissue ratio at 3 h (in vivo; tumour and whole blood): 0.8 ± 0.1
- tissue to tissue ratio at 24 h (in vivo; tumour and whole blood): 6 ± 4
- tissue uptake at 0.5 h (in vivo; blood, blood): 10.2 ± 1.5 %ID/g
- tissue uptake at 3 h (in vivo; blood, blood): 2.9 ± 1.5 %ID/g
- tissue uptake at 24 h (in vivo; blood, blood): 0.02 %ID/g
- tissue uptake at 0.5 h (in vivo; bone, bone): 3.8 ± 0.8 %ID/g
- tissue uptake at 3 h (in vivo; bone, bone): 1.1 ± 0.5 %ID/g
- tissue uptake at 0.5 h (in vivo; kidney, kidney): 13.2 ± 1.8 %ID/g
- tissue uptake at 3 h (in vivo; kidney, kidney): 6.1 ± 1.1 %ID/g
- tissue uptake at 24 h (in vivo; kidney, kidney): 1.5 ± 0.3 %ID/g
- tissue uptake at 0.5 h (in vivo; liver, liver): 8.9 ± 3.1 %ID/g
- tissue uptake at 3 h (in vivo; liver, liver): 2.6 ± 1.1 %ID/g
- tissue uptake at 24 h (in vivo; liver, liver): 0.2 %ID/g
- tissue uptake at 0.5 h (in vivo; lung, lung): 9.1 ± 1.2 %ID/g
- tissue uptake at 3 h (in vivo; lung, lung): 3.5 ± 1.4 %ID/g
- tissue uptake at 24 h (in vivo; lung, lung): 0.2 ± 0.1 %ID/g
- tissue uptake at 0.5 h (in vivo; muscle, muscle): 2 %ID/g
- tissue uptake at 3 h (in vivo; muscle, muscle): 0.6 ± 0.3 %ID/g
- tissue uptake at 0.5 h (in vivo; pancreas, pancreas): 10.1 ± 1.2 %ID/g
- tissue uptake at 3 h (in vivo; pancreas, pancreas): 2.3 ± 0.6 %ID/g
- tissue uptake at 0.5 h (in vivo; salivary gland, salivary gland): 6.6 ± 3.7 %ID/g
- tissue uptake at 3 h (in vivo; salivary gland, salivary gland): 2 ± 1.2 %ID/g
- tissue uptake at 0.5 h (in vivo; [6]): 7.3 ± 3 %ID/g
- tissue uptake at 3 h (in vivo; [6]): 1.8 ± 0.7 %ID/g
- tissue uptake at 0.5 h (in vivo; spleen, spleen): 5.4 ± 0.8 %ID/g
- tissue uptake at 3 h (in vivo; spleen, spleen): 2 ± 0.8 %ID/g
- tissue uptake at 0.5 h (in vivo; stomach, stomach): 13.2 ± 7.2 %ID/g
- tissue uptake at 3 h (in vivo; stomach, stomach): 4.6 ± 2.7 %ID/g
- tissue uptake at 24 h (in vivo; stomach, stomach): 0.1 %ID/g
- tissue uptake at 0.5 h (in vivo; thyroid, thyroid): 8.2 ± 3.7 %ID/g
- tissue uptake at 3 h (in vivo; thyroid, thyroid): 2.2 ± 1.6 %ID/g
- tissue uptake at 0.5 h (in vivo; tumour, tumour, non-blocked): 7 ± 0.8 %ID/g
- tissue uptake at 3 h (in vivo; tumour, tumour): 2.1 ± 0.8 %ID/g
- Decrease of tumour uptake at 3 h compared to 0.5 h after injection [3]: more than 3 fold
- Cell-bound activity and retention in presence of chloroquine and ammonium chloride vs control (PC-3 cells [4]): considerably higher compared to control
- logP [5]: 1 ± 0.1
